Results: the supplement of paper PMC5908809

Assays:
[1] = system: normal NK cells expanded with K562-aAPC; experiment: percent inhibition of viability; higher = more inhibition; conditions: 72 h, IL-2 2.5 ng/mL
Protocol: (§1)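 Drug sensitivity and resistance testing on K562-aAPC-expanded normal NK cells: 5 concentrations (10-fold steps over a 10,000-fold range), 72 h at 37 °C, viability by CellTiter-Glo normalised to DMSO and benzethonium chloride controls; DSS from the fitted curve.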

[2] = system: DERL-7 (IL-2 2.5 ng/mL); experiment: as above; conditions: 72 h
[3] = system: IMC-1 (IL-2 20 ng/mL); experiment: as above; conditions: 72 h
[4] = system: KAI3 (IL-2 2.5 ng/mL); experiment: as above; conditions: 72 h
[5] = system: KHYG-1 (IL-2 2.5 ng/mL); experiment: as above; conditions: 72 h
[6] = system: NK-92 (IL-2 2.5 ng/mL); experiment: as above; conditions: 72 h
[7] = system: NK-YS (IL-2 2.5 ng/mL); experiment: as above; conditions: 72 h
[8] = system: NKL (IL-2 2.5 ng/mL); experiment: as above; conditions: 72 h
[9] = system: SNK-6 (IL-2 2.5 ng/mL); experiment: as above; conditions: 72 h
[10] = system: YT (IL-2 2.5 ng/mL); experiment: as above; conditions: 72 h
[11] = system: normal primary NK cells, pool 1 (3 donors) (IL-2 2.5 ng/mL); experiment: as above; conditions: 72 h
[12] = system: normal primary NK cells, pool 1 (3 donors), resting (IL-2 0 ng/mL); experiment: as above; conditions: 72 h
[13] = system: normal primary NK cells, pool 2 (3 donors) (IL-2 2.5 ng/mL); experiment: as above; conditions: 72 h
[14] = system: normal primary NK cells, pool 3 (3 donors) (IL-2 2.5 ng/mL); experiment: as above; conditions: 72 h
[15] = system: normal NK cells expanded with K562-aAPC; experiment: drug sensitivity score (DSS) (DSS units); higher = more sensitive; extreme values may be limits of the assay; conditions: 72 h; IL-2 2.5 ng/mL
Protocol: as §1

[16] = system: DERL-7 (IL-2 2.5 ng/mL); experiment: as above; conditions: 72 h
[17] = system: IMC-1 (IL-2 20 ng/mL); experiment: as above; conditions: 72 h
[18] = system: KAI3 (IL-2 2.5 ng/mL); experiment: as above; conditions: 72 h
[19] = system: KHYG-1 (IL-2 2.5 ng/mL); experiment: as above; conditions: 72 h
[20] = system: NK-92 (IL-2 2.5 ng/mL); experiment: as above; conditions: 72 h
[21] = system: NK-YS (IL-2 2.5 ng/mL); experiment: as above; conditions: 72 h
[22] = system: NKL (IL-2 2.5 ng/mL); experiment: as above; conditions: 72 h
[23] = system: SNK-6 (IL-2 2.5 ng/mL); experiment: as above; conditions: 72 h
[24] = system: YT (IL-2 2.5 ng/mL); experiment: as above; conditions: 72 h
[25] = system: normal primary NK cells, pool 1 (3 donors) (IL-2 2.5 ng/mL); experiment: as above; conditions: 72 h
[26] = system: normal primary NK cells, pool 1 (3 donors), resting (IL-2 0 ng/mL); experiment: as above; conditions: 72 h
[27] = system: normal primary NK cells, pool 2 (3 donors) (IL-2 2.5 ng/mL); experiment: as above; conditions: 72 h
[28] = system: normal primary NK cells, pool 3 (3 donors) (IL-2 2.5 ng/mL); experiment: as above; conditions: 72 h

CCN1CCN(Cc2ccc(-c3cc4c(N[C@H](C)c5ccccc5)ncnc4[nH]3)cc2)CC1 [NVP-AEE788] (max concentration tested 2500 nM)
percent inhibition of viability [%]
Conditions	0.25 nM	2.5 nM	25 nM	250 nM	2500 nM
[1]	-8.59	-5.81	-0.99	4.64	27.8
[2]	-0.87	0.92	1.23	5.24	19.9
[3]	-8.78	-2.35	1.14	-4.8	5.2
[4]	-3.14	-7.58	-0.99	5.51	26.6
[5]	-7.12	-8.65	-3.24	-0.41	22.7
[6]	-16	-4.1	-2.66	13.6	51
[7]	-8.61	-8.85	-3.03	-1.23	17.7
[8]	-2.78	3.21	7.84	20	48.2
[9]	-12.2	-14.1	-23.9	-6.92	9.17
[10]	-6.59	-5.53	-3.48	7.61	27.4
[11]	4.7	13.8	6.81	9.36	16.1
[12]	-1.29	14.4	9.7	11.1	5.88
[13]	-10.9	9.29	3.66	5.84	2.8
[14]	-4.61	9.35	9.18	5.89	-1.16

Conditions	drug sensitivity score
[15]	1.88
[16]	1.24
[17]	0
[18]	1.9
[19]	0.75
[20]	4.8
[21]	0.35
[22]	4.63
[23]	0
[24]	2.2
[25]	0
[26]	0.04
[27]	0
[28]	0

CCN1CCN(c2ccc(Nc3cc(N(C)C(=O)Nc4c(Cl)c(OC)cc(OC)c4Cl)ncn3)cc2)CC1 [NVP-BGJ398] (max concentration tested 1000 nM)
percent inhibition of viability [%]
Conditions	0.1 nM	1 nM	10 nM	100 nM	1000 nM
[1]	-0.93	-6.78	-4.9	4.74	2.68
[2]	2.66	5.38	2.13	4.05	8.48
[3]	-7.18	3.41	-1.12	4.31	-1.42
[4]	-2.53	-7.26	-1.75	2.95	5.14
[5]	-6.77	-2.35	-1.84	3.9	22.1
[6]	-11.4	1.56	9.63	19.4	17.8
[7]	-4.6	-4.02	-4.62	-2.71	6.5
[8]	-0.94	-7.47	0.95	4.24	15
[9]	-1.53	-0.29	-14.4	-13.1	-6.84
[10]	-2.36	0.47	-1.37	5.31	11.7
[11]	4.34	9.33	11.6	4.78	12.1
[12]	-6.47	4.3	1.93	4.77	19.9
[13]	-8.08	5.48	12.3	1.57	12.6
[14]	-6.2	7.43	9.02	0.22	7.33

Conditions	drug sensitivity score
[15]	0
[16]	0
[17]	0
[18]	0
[19]	1.3
[20]	3.27
[21]	0
[22]	0.59
[23]	0
[24]	0.2
[25]	0
[26]	1.18
[27]	0.05
[28]	0
